System: 171881-019-R-J1-PDC tumor spheroids, viability
Experiment: Anticancer human tumor 171881-019-R-J1-PDC patient-derived invasive breast carcinoma cell line growth inhibition [GQUAD]
Conditions: spheroids with HUVEC and MSC; for IC50: curve of first compound; for viability, T/C: stronger effect = lower value
How it was run: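 Multi-cell-type spheroids of tumor cells with HUVEC and mesenchymal stem cells, treated with drug combinations. Concentrations descend in half-log steps from near clinical Cmax, or from 10 microM where Cmax is unknown; viability read-out.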

[1] = second compound 0.0316 µM, first compound 0.000999 µM
[2] = second compound 0.0316 µM, first compound 0.00316 µM
[3] = second compound 0.0316 µM, first compound 0.00999 µM
[4] = second compound 0.0316 µM, first compound 0.0316 µM
[5] = second compound 0.0316 µM, first compound 0.0999 µM
[6] = second compound 0.0316 µM, first compound 0.316 µM
[7] = second compound 0.1 µM, first compound 0.000999 µM
[8] = second compound 0.1 µM, first compound 0.00316 µM
[9] = second compound 0.1 µM, first compound 0.00999 µM
[10] = second compound 0.1 µM, first compound 0.0316 µM
[11] = second compound 0.1 µM, first compound 0.0999 µM
[12] = second compound 0.1 µM, first compound 0.316 µM
[13] = second compound 0.316 µM, first compound 0.000999 µM
[14] = second compound 0.316 µM, first compound 0.00316 µM
[15] = second compound 0.316 µM, first compound 0.00999 µM
[16] = second compound 0.316 µM, first compound 0.0316 µM
[17] = second compound 0.316 µM, first compound 0.0999 µM
[18] = second compound 0.316 µM, first compound 0.316 µM
[19] = second compound 1 µM, first compound 0.000999 µM
[20] = second compound 1 µM, first compound 0.00316 µM
[21] = second compound 1 µM, first compound 0.00999 µM
[22] = second compound 1 µM, first compound 0.0316 µM
[23] = second compound 1 µM, first compound 0.0999 µM
[24] = second compound 1 µM, first compound 0.316 µM
[25] = second compound 3.16 µM, first compound 0.000999 µM
[26] = second compound 3.16 µM, first compound 0.00316 µM
[27] = second compound 3.16 µM, first compound 0.00999 µM
[28] = second compound 3.16 µM, first compound 0.0316 µM
[29] = second compound 3.16 µM, first compound 0.0999 µM
[30] = second compound 3.16 µM, first compound 0.316 µM
[31] = second compound 10 µM, first compound 0.000999 µM
[32] = second compound 10 µM, first compound 0.00316 µM
[33] = second compound 10 µM, first compound 0.00999 µM
[34] = second compound 10 µM, first compound 0.0316 µM
[35] = second compound 10 µM, first compound 0.0999 µM
[36] = second compound 10 µM, first compound 0.316 µM
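Note: spheroids exposed to compounds for 7 days.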
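Throughout, for viability, T/C: 100% = DMSO vehicle control viability.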

**Q.** How did the IC50 (second compound 0.0316 µM) turn out when CC[C@@]1(O)C(=O)OCc2c1cc1n(c2=O)Cc2cc3c(CN(C)C)c(O)ccc3nc2-1 + Cc1[nH]c2ccc(F)cc2c1-c1nc2c3cccnc3c3ncccc3c2[nH]1 was run?
**A.** Its IC50 is 0.0961 µM.

**Q.** And the IC50 (second compound 0.1 µM)?
**A.** Its IC50 is 0.122 µM.

**Q.** And the IC50 (second compound 0.316 µM)?
**A.** The IC50 was 0.142 µM.

**Q.** What about the IC50 (second compound 1 µM) of the same compound?
**A.** Its IC50 is 0.119 µM.

**Q.** What about the IC50 (second compound 3.16 µM) of the same compound?
**A.** Its IC50 is < 0.000999 µM.

**Q.** And the IC50 (second compound 10 µM)?
**A.** The IC50 was < 0.000999 µM.

**Q.** What about the viability, T/C [1] of the same compound?
**A.** Its viability, T/C is 97%.

**Q.** And the viability, T/C [2]?
**A.** Its viability, T/C is 86.9%.

**Q.** And the viability, T/C [3]?
**A.** The viability, T/C was 97.9%.

**Q.** What about the viability, T/C [4] of the same compound?
**A.** The viability, T/C was 87.1%.

**Q.** And the viability, T/C [5]?
**A.** Its viability, T/C is 48.8%.

**Q.** What about the viability, T/C [6] of the same compound?
**A.** The viability, T/C was 37.8%.

**Q.** And the viability, T/C [7]?
**A.** The viability, T/C was 108%.

**Q.** What about the viability, T/C [8] of the same compound?
**A.** Its viability, T/C is 99.1%.

**Q.** What about the viability, T/C [9] of the same compound?
**A.** Its viability, T/C is 93.1%.

**Q.** And the viability, T/C [10]?
**A.** Its viability, T/C is 87.1%.

**Q.** And the viability, T/C [11]?
**A.** The viability, T/C was 50.8%.

**Q.** What about the viability, T/C [12] of the same compound?
**A.** The viability, T/C was 39.7%.

**Q.** What about the viability, T/C [13] of the same compound?
**A.** The viability, T/C was 101%.

**Q.** And the viability, T/C [14]?
**A.** The viability, T/C was 104%.

**Q.** And the viability, T/C [15]?
**A.** Its viability, T/C is 90.5%.

**Q.** And the viability, T/C [16]?
**A.** Its viability, T/C is 82.8%.

**Q.** And the viability, T/C [17]?
**A.** Its viability, T/C is 53.9%.

**Q.** What about the viability, T/C [18] of the same compound?
**A.** The viability, T/C was 38.1%.

**Q.** What about the viability, T/C [19] of the same compound?
**A.** The viability, T/C was 87.6%.

**Q.** What about the viability, T/C [20] of the same compound?
**A.** Its viability, T/C is 68%.

**Q.** And the viability, T/C [21]?
**A.** The viability, T/C was 86%.

**Q.** And the viability, T/C [22]?
**A.** The viability, T/C was 70.3%.

**Q.** And the viability, T/C [23]?
**A.** The viability, T/C was 52.8%.

**Q.** And the viability, T/C [24]?
**A.** The viability, T/C was 37.7%.

**Q.** And the viability, T/C [25]?
**A.** The viability, T/C was 21.7%.

**Q.** And the viability, T/C [26]?
**A.** Its viability, T/C is 17.7%.

**Q.** And the viability, T/C [27]?
**A.** The viability, T/C was 22.7%.

**Q.** And the viability, T/C [28]?
**A.** Its viability, T/C is 24.3%.

**Q.** And the viability, T/C [29]?
**A.** The viability, T/C was 22.9%.

**Q.** What about the viability, T/C [30] of the same compound?
**A.** The viability, T/C was 16.7%.

**Q.** And the viability, T/C [31]?
**A.** The viability, T/C was 46.2%.

**Q.** What about the viability, T/C [32] of the same compound?
**A.** The viability, T/C was 41.7%.

**Q.** And the viability, T/C [33]?
**A.** The viability, T/C was 45.2%.

**Q.** And the viability, T/C [34]?
**A.** Its viability, T/C is 38.4%.

**Q.** And the viability, T/C [35]?
**A.** The viability, T/C was 37.6%.

**Q.** And the viability, T/C [36]?
**A.** Its viability, T/C is 20.7%.

**Q.** Which IC50 (second compound 0.0316 µM) does the source give for Cn1ncnc1[C@H]1c2n[nH]c(=O)c3cc(F)cc(c23)N[C@@H]1c1ccc(F)cc1 + Cc1cnc(CNC(=O)c2c(=O)c3ccc(N4CCCN(C)CC4)nc3n3c2sc2ccccc23)cn1 here?
**A.** Its IC50 is > 0.316 µM.

**Q.** What about the IC50 (second compound 0.1 µM) of the same compound?
**A.** The IC50 was > 0.316 µM.

**Q.** And the IC50 (second compound 0.316 µM)?
**A.** Its IC50 is > 0.316 µM.

**Q.** What about the IC50 (second compound 1 µM) of the same compound?
**A.** The IC50 was > 0.316 µM.

**Q.** And the IC50 (second compound 3.16 µM)?
**A.** Its IC50 is > 0.316 µM.

**Q.** And the IC50 (second compound 10 µM)?
**A.** Its IC50 is > 0.316 µM.

**Q.** And the viability, T/C [1]?
**A.** Its viability, T/C is 94.5%.

**Q.** What about the viability, T/C [2] of the same compound?
**A.** The viability, T/C was 86.1%.

**Q.** What about the viability, T/C [3] of the same compound?
**A.** Its viability, T/C is 95.2%.

**Q.** What about the viability, T/C [4] of the same compound?
**A.** Its viability, T/C is 87.2%.

**Q.** What about the viability, T/C [5] of the same compound?
**A.** Its viability, T/C is 79.1%.

**Q.** And the viability, T/C [6]?
**A.** The viability, T/C was 73.6%.

**Q.** What about the viability, T/C [7] of the same compound?
**A.** The viability, T/C was 82.2%.

**Q.** And the viability, T/C [8]?
**A.** Its viability, T/C is 83.2%.

**Q.** And the viability, T/C [9]?
**A.** Its viability, T/C is 82.4%.

**Q.** And the viability, T/C [10]?
**A.** The viability, T/C was 76%.

**Q.** What about the viability, T/C [11] of the same compound?
**A.** Its viability, T/C is 63.3%.

**Q.** What about the viability, T/C [12] of the same compound?
**A.** Its viability, T/C is 59.9%.

**Q.** What about the viability, T/C [13] of the same compound?
**A.** Its viability, T/C is 73.7%.

**Q.** And the viability, T/C [14]?
**A.** Its viability, T/C is 74.3%.

**Q.** And the viability, T/C [15]?
**A.** Its viability, T/C is 67.5%.

**Q.** What about the viability, T/C [16] of the same compound?
**A.** The viability, T/C was 63.5%.

**Q.** And the viability, T/C [17]?
**A.** Its viability, T/C is 64.4%.

**Q.** And the viability, T/C [18]?
**A.** Its viability, T/C is 65.1%.

**Q.** And the viability, T/C [19]?
**A.** Its viability, T/C is 68%.

**Q.** What about the viability, T/C [20] of the same compound?
**A.** The viability, T/C was 59.8%.

**Q.** And the viability, T/C [21]?
**A.** The viability, T/C was 70.4%.

**Q.** And the viability, T/C [22]?
**A.** Its viability, T/C is 63.5%.

**Q.** And the viability, T/C [23]?
**A.** Its viability, T/C is 63.5%.

**Q.** And the viability, T/C [24]?
**A.** The viability, T/C was 61.9%.

**Q.** What about the viability, T/C [25] of the same compound?
**A.** Its viability, T/C is 61.3%.

**Q.** What about the viability, T/C [26] of the same compound?
**A.** The viability, T/C was 60.1%.

**Q.** And the viability, T/C [27]?
**A.** Its viability, T/C is 61.2%.

**Q.** And the viability, T/C [28]?
**A.** The viability, T/C was 64.7%.

**Q.** What about the viability, T/C [29] of the same compound?
**A.** Its viability, T/C is 65.1%.

**Q.** What about the viability, T/C [30] of the same compound?
**A.** The viability, T/C was 59.1%.

**Q.** And the viability, T/C [31]?
**A.** The viability, T/C was 58.6%.

**Q.** What about the viability, T/C [32] of the same compound?
**A.** The viability, T/C was 63%.

**Q.** And the viability, T/C [33]?
**A.** Its viability, T/C is 60.4%.

**Q.** What about the viability, T/C [34] of the same compound?
**A.** Its viability, T/C is 59.9%.

**Q.** What about the viability, T/C [35] of the same compound?
**A.** Its viability, T/C is 65.9%.

**Q.** What about the viability, T/C [36] of the same compound?
**A.** Its viability, T/C is 60.4%.

From PubChem BioAssay AID2060498 (Molecular Pharmacology Branch, DTP, NCI, 2025)
